According to EP3708565A1, “PYRIMIDINYLOXYPHENYLAMIDINES AND THE USE THEREOF AS FUNGICIDES” (Bayer AG, priority 2020, dated 2020):

Legend:
Phakospora pachyrhizi = assay: in vivo preventive test on Phakospora pachyrhizi (soybean rust); conditions: for pest or weed control at 500 ppm: Glycine max, 288 h, 500 ppm of active ingredient, young soybean plants sprayed, inoculated after 24 hours, evaluated 12 days after the inoculation, read-out: efficacy
Puccinia recondita = assay: in vivo preventive test on Puccinia recondita (brown rust on wheat); conditions: for pest or weed control at 500 ppm: Puccinia recondita, 264 h, 500 ppm of active ingredient, young wheat plants sprayed, inoculated after 24 hours, evaluated 11 days after the inoculation, read-out: efficacy
[1] = LogP measurement by HPLC on reversed phase columns (EEC directive 79/831 Annex V.A8); assay type: physicochemical
Protocol: If more than one LogP value is available within the same method, all the values are given and separated by "+".
Lambda-max-values were determined using UV-spectra from 200 nm to 400 nm and the peak values of the chromatographic signals.

Sphaerotheca fuliginea = assay: in vivo preventive test on Sphaerotheca fuliginea (powdery mildew on cucurbits); conditions: 500 ppm of active ingredient, young gherkin plants sprayed, inoculated after 24 hours, evaluated 8 days after the inoculation; for pest or weed control at 500 ppm: Podosphaera fuliginea, 192 h, read-out: efficacy
[2] = reversed phase HPLC column, method [a]: LC-UV, acidic range, 0.1% formic acid in water and acetonitrile as eluent
[3] = reversed phase HPLC column, method [b]: LC-UV, neutral range, 0.001 molar ammonium acetate solution in water and acetonitrile as eluent
[4] = method [a]: LC-UV, acidic range, 0.1% formic acid in water and acetonitrile as eluent

Which pest or weed control at 500 ppm (Phakospora pachyrhizi) does the source give for `CCN(C)C=Nc1cc(C(F)F)c(Oc2ccnc(SCC(C)C)n2)cc1C` [I.025, N'-[5-(difluoromethyl)-2-methyl-4-[2-(2-methylpropylsulfanyl)pyrimidin-4-yl]oxyphenyl]-N-ethyl-N-methylmethanimidamide] here?
The pest or weed control at 500 ppm was no less than 70%.

And the pest or weed control at 500 ppm (Puccinia recondita)?
The pest or weed control at 500 ppm was no less than 70%.

What about the chromatographic logP [1, 2] of the same compound?
Its chromatographic logP is 1.69.

And the pest or weed control at 500 ppm (Sphaerotheca fuliginea)?
The pest or weed control at 500 ppm was no less than 70%.

With `CCN(C)C=Nc1cc(Br)c(Oc2ccnc(SCC(C)C)n2)cc1C` [I.007, N'-[5-bromo-2-methyl-4-[2-(2-methylpropylsulfanyl)pyrimidin-4-yl]oxyphenyl]-N-ethyl-N-methylmethanimidamide] as the compound, how does the pest or weed control at 500 ppm (Phakospora pachyrhizi) read?
Its pest or weed control at 500 ppm is no less than 70%.

What about the pest or weed control at 500 ppm (Puccinia recondita) of the same compound?
The pest or weed control at 500 ppm was no less than 70%.

What about the chromatographic logP [1, 2] of the same compound?
Its chromatographic logP is 1.81.

And the chromatographic logP [1, 3]?
Its chromatographic logP is 5.25.

What about the pest or weed control at 500 ppm (Sphaerotheca fuliginea) of the same compound?
Its pest or weed control at 500 ppm is no less than 70%.

Which efficacy (Phakospora pachyrhizi; 500 ppm) does the source give for `CCCSc1nccc(Oc2cc(C)c(N=CN(C)CC)cc2C)n1` [I.029, N'-[2,5-dimethyl-4-(2-propylsulfanylpyrimidin-4-yl)oxyphenyl]-N-ethyl-N-methylmethanimid-amide] here?
Its efficacy is “at least 70%”.

And the efficacy (Puccinia recondita; 500 ppm)?
The efficacy was “at least 70%”.

And the chromatographic logP [1, 4]?
Its chromatographic logP is 1.46.

And the chromatographic logP ([1]; method [b]: LC-UV, neutral range, 0.001 molar ammonium acetate solution in water and acetonitrile as eluent)?
The chromatographic logP was 4.61.

What about the efficacy (Sphaerotheca fuliginea) of the same compound?
Its efficacy is “at least 70%”.

Which results are given for `CCN(C)C=Nc1cc(C)c(Oc2ccnc(/C=C/C(C)(C)C)n2)cc1C` [I.034, N'-[4-[2-[(E)-3,3-dimethylbut-1-enyl]pyrimidin-4-yl]oxy-2,5-dimethylphenyl]-N-ethyl-N-methylmethanimidamide]?
pest or weed control at 500 ppm (Phakospora pachyrhizi): ≥ 70%; pest or weed control at 500 ppm (Puccinia recondita): ≥ 70%; chromatographic logP [1, 2]: 1.66; chromatographic logP [1, 3]: 4.94; pest or weed control at 500 ppm (Sphaerotheca fuliginea): ≥ 70%

Which pest or weed control at 500 ppm (Phakospora pachyrhizi) does the source give for `CCN(C)C=Nc1cc(C)c(Oc2ccnc(SC3CCCC3)n2)cc1C` [I.012, N'-[4-(2-cyclopentylsulfanylpyrimidin-4-yl)oxy-2,5-dimethylphenyl]-N-ethyl-N-methylmethan-imidamide] here?
Its pest or weed control at 500 ppm is no less than 70%.

And the pest or weed control at 500 ppm (Puccinia recondita)?
The pest or weed control at 500 ppm was no less than 70%.

What about the chromatographic logP [1, 2] of the same compound?
Its chromatographic logP is 1.75.

And the pest or weed control at 500 ppm (Sphaerotheca fuliginea)?
Its pest or weed control at 500 ppm is no less than 70%.

With `CCN(C)C=Nc1cc(Br)c(Oc2ccnc(Sc3ccccc3)n2)cc1C` [I.037, N'-[5-bromo-2-methyl-4-(2-phenylsulfanylpyrimidin-4-yl)oxyphenyl]-N-ethyl-N-methylmethan-imidamide] as the compound, how does the pest or weed control at 500 ppm (Phakospora pachyrhizi) read?
The pest or weed control at 500 ppm was no less than 70%.

And the pest or weed control at 500 ppm (Puccinia recondita)?
Its pest or weed control at 500 ppm is no less than 70%.

What about the chromatographic logP [1, 2] of the same compound?
The chromatographic logP was 1.69.

What about the chromatographic logP [1, 3] of the same compound?
The chromatographic logP was 4.8.

And the pest or weed control at 500 ppm (Sphaerotheca fuliginea)?
Its pest or weed control at 500 ppm is no less than 70%.

What does the source list for `CCN(C)C=Nc1cc(C)c(Oc2cc(SC(C)(C)C)nc(C)n2)cc1C` [I.023, N'-[4-(6-tert-butylsulfanyl-2-methylpyrimidin-4-yl)oxy-2,5-dimethylphenyl]-N-ethyl-N-methyl-methanimidamide]?
pest or weed control at 500 ppm (Phakospora pachyrhizi): ≥ 70%; pest or weed control at 500 ppm (Puccinia recondita): ≥ 70%; chromatographic logP [1, 2]: 1.99; pest or weed control at 500 ppm (Sphaerotheca fuliginea): ≥ 70%

What does the source list for `CCC(C)Sc1nccc(Oc2cc(C)c(N=CN(C)CC)cc2C)n1` (racemic) [I.004, N'-[2,5-dimethyl-4-[2-[rac-(2R)-butan-2-yl]sulfanylpyrimidin-4-yl]oxyphenyl]-N-ethyl-N-methylmethanimidamide]?
pest or weed control at 500 ppm (Phakospora pachyrhizi): ≥ 70%; pest or weed control at 500 ppm (Puccinia recondita): ≥ 70%; chromatographic logP [1, 2]: 1.87; pest or weed control at 500 ppm (Sphaerotheca fuliginea): ≥ 70%

With `CCN(C)C=Nc1cc(C)c(Oc2ccnc(SCC[Si](C)(C)C)n2)cc1C` [I.043, N'-[2,5-dimethyl-4-[2-(2-trimethylsilylethylsulfanyl)pyrimidin-4-yl]oxyphenyl]-N-ethyl-N-methylmethanimidamide] as the compound, how does the pest or weed control at 500 ppm (Phakospora pachyrhizi) read?
The pest or weed control at 500 ppm was no less than 70%.

And the pest or weed control at 500 ppm (Puccinia recondita)?
The pest or weed control at 500 ppm was no less than 70%.

What about the chromatographic logP [1, 4] of the same compound?
The chromatographic logP was 2.17.

What about the pest or weed control at 500 ppm (Sphaerotheca fuliginea) of the same compound?
The pest or weed control at 500 ppm was no less than 70%.

What does the source list for `CCN(C)C=Nc1cc(C)c(Oc2ccnc(CCC(C)(C)C)n2)cc1C` [I.003, N'-[4-[2-(3,3-dimethylbutyl)pyrimidin-4-yl]oxy-2,5-dimethylphenyl]-N-ethyl-N-methylmethan-imidamide]?
pest or weed control at 500 ppm (Phakospora pachyrhizi): ≥ 70%; pest or weed control at 500 ppm (Puccinia recondita): ≥ 70%; chromatographic logP [1, 2]: 1.63; chromatographic logP [1, 3]: 4.89; pest or weed control at 500 ppm (Sphaerotheca fuliginea): ≥ 70%

What does the source list for `CCN(C)C=Nc1cc(Br)c(Oc2ccnc(SC(C)(C)C)n2)cc1C` [I.001, N'-[5-bromo-4-(2-tert-butylsulfanylpyrimidin-4-yl)oxy-2-methylphenyl]-N-ethyl-N-methyl-methanimidamide]?
pest or weed control at 500 ppm (Phakospora pachyrhizi): ≥ 70%; pest or weed control at 500 ppm (Puccinia recondita): ≥ 70%; chromatographic logP [1, 2]: 1.72; chromatographic logP [1, 3]: 4.95; pest or weed control at 500 ppm (Sphaerotheca fuliginea): ≥ 70%

For `CCC(C)Sc1cc(Oc2cc(C)c(N=CN(C)CC)cc2C)nc(C)n1` (stereo not shown) [I.024, N'-[4-(6-butan-2-ylsulfanyl-2-methylpyrimidin-4-yl)oxy-2,5-dimethylphenyl]-N-ethyl-N-methyl-methanimidamide], which pest or weed control at 500 ppm (Phakospora pachyrhizi) is on record?
The pest or weed control at 500 ppm was no less than 70%.

What about the pest or weed control at 500 ppm (Puccinia recondita) of the same compound?
Its pest or weed control at 500 ppm is no less than 70%.

And the chromatographic logP [1, 2]?
Its chromatographic logP is 2.02.

What about the chromatographic logP [1, 3] of the same compound?
Its chromatographic logP is 5.98.

What about the pest or weed control at 500 ppm (Sphaerotheca fuliginea) of the same compound?
Its pest or weed control at 500 ppm is no less than 70%.
